Test system: compound-treated mice
Assay: Neuropharmacological assay (SmartCube): behavioral activity signature and minimal effective dose
Format: in vivo
Settings: for minimal effective dose: Mus musculus, ip, MED = dose having 50% or more total activity, read-out: Potency: minimal effective dose (MED); for AD: ADHD (probability of activity signature) / AG: analgesic (probability of activity signature) / AX: anxiolytic (probability of activity signature) / CE: cognitive enhancer (probability of activity signature) / DP: anti-depressant (probability of activity signature) / MS: mood stabilizer (probability of activity signature) / PS: anti-psychotic (probability of activity signature) / SD: sedative hypnotic (probability of activity signature) / UN: uncharacterized CNS activity (probability of activity signature): i.p. 15 min before test, most efficacious dose(s)
Procedure, shortened: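 Mice dosed i.p. 15 min before test, compound in N-methyl-2-pyrrolidone/PEG/propylene glycol, 3 doses; video-captured behavior matched to reference-drug signatures, giving per-class probabilities at most efficacious dose. MED from doses typically 0.3–30 mpk, defined as lowest dose with ≥50% total activity.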

| SMILES | minimal effective dose [mg/kg] | AD: ADHD (probability of activity signature) | AG: analgesic (probability of activity signature) | AX: anxiolytic (probability of activity signature) | CE: cognitive enhancer (probability of activity signature) | DP: anti-depressant (probability of activity signature) | MS: mood stabilizer (probability of activity signature) | PS: anti-psychotic (probability of activity signature) | SD: sedative hypnotic (probability of activity signature) | UN: uncharacterized CNS activity (probability of activity signature) |
| --- | --- | --- | --- | --- | --- | --- | --- | --- | --- | --- |
| CC1(C)OCc2ccccc2C1N.Cl (centres unmarked) [Example 101, 3,3-Dimethylisochroman-4-amine hydrochloride] | 10 to 30 | + (LOQ ≤ + <5%) | ++ (5% ≤ ++ <25%) | +++ (25% ≤ +++ <50%) | + (LOQ ≤ + <5%) | ++ (5% ≤ ++ <25%) | + (LOQ ≤ + <5%) | ++ (5% ≤ ++ <25%) | ++ (5% ≤ ++ <25%) | + (LOQ ≤ + <5%) |
| Cc1ccc2c(c1)[C@H](N)CO[C@@H]2C.Cl [Example 106] | 3 to 10 | + (LOQ ≤ + <5%) | + (LOQ ≤ + <5%) | ++ (5% ≤ ++ <25%) | ++ (5% ≤ ++ <25%) | + (LOQ ≤ + <5%) | + (LOQ ≤ + <5%) | ++ (5% ≤ ++ <25%) | ++ (5% ≤ ++ <25%) | ++++ (50% ≤ ++++) |
| Cc1ccc2c(c1)[C@H](N)CO[C@H]2C.Cl [Example 107] | 3 to 10 | + (LOQ ≤ + <5%) | ++ (5% ≤ ++ <25%) | ++ (5% ≤ ++ <25%) | ++ (5% ≤ ++ <25%) | + (LOQ ≤ + <5%) | + (LOQ ≤ + <5%) | ++ (5% ≤ ++ <25%) | + (LOQ ≤ + <5%) | +++ (25% ≤ +++ <50%) |
| N[C@@H]1COCc2cccc(Cl)c21 [Example 127] | < 3 | + (LOQ ≤ + <5%) | ++ (5% ≤ ++ <25%) | ++ (5% ≤ ++ <25%) | ++ (5% ≤ ++ <25%) | ++ (5% ≤ ++ <25%) | + (LOQ ≤ + <5%) | ++ (5% ≤ ++ <25%) | + (LOQ ≤ + <5%) | +++ (25% ≤ +++ <50%) |
| N[C@H]1COCc2cccc(Cl)c21 [Example 128] | < 3 | + (LOQ ≤ + <5%) | ++ (5% ≤ ++ <25%) | ++ (5% ≤ ++ <25%) | +++ (25% ≤ +++ <50%) | ++ (5% ≤ ++ <25%) | + (LOQ ≤ + <5%) | ++ (5% ≤ ++ <25%) | + (LOQ ≤ + <5%) | +++ (25% ≤ +++ <50%) |
| N[C@@H]1COCc2c(Cl)cccc21 [Example 131] | < 3 | + (LOQ ≤ + <5%) | + (LOQ ≤ + <5%) | ++ (5% ≤ ++ <25%) | +++ (25% ≤ +++ <50%) | ++ (5% ≤ ++ <25%) | ++ (5% ≤ ++ <25%) | ++ (5% ≤ ++ <25%) | ++ (5% ≤ ++ <25%) | +++ (25% ≤ +++ <50%) |
| N[C@H]1COCc2c(Cl)cccc21 [Example 132] | < 3 | + (LOQ ≤ + <5%) | ++ (5% ≤ ++ <25%) | +++ (25% ≤ +++ <50%) | +++ (25% ≤ +++ <50%) | ++ (5% ≤ ++ <25%) | + (LOQ ≤ + <5%) | ++ (5% ≤ ++ <25%) | ++ (5% ≤ ++ <25%) | +++ (25% ≤ +++ <50%) |
| Cc1ccc2c(c1C)[C@H](N)COC2 [Example 135] | < 3 | + (LOQ ≤ + <5%) | ++ (5% ≤ ++ <25%) | +++ (25% ≤ +++ <50%) | ++ (5% ≤ ++ <25%) | ++ (5% ≤ ++ <25%) | + (LOQ ≤ + <5%) | ++ (5% ≤ ++ <25%) | ++ (5% ≤ ++ <25%) | +++ (25% ≤ +++ <50%) |

Reference: patent publication US11077090B2, “Compounds and compositions and uses thereof” (Sunovion Pharmaceuticals Inc., priority 2016, dated 2021)
